# Data reported in ChEMBL document CHEMBL3044861, “Synthesis and Herbicidal Activity of New 2-(1-Carbamoyl-1, 2, 4-triazol-3-ylsulfonyl) alkanoates” (J Pestic Sci, 2002).
# How the values were obtained:
# [1] = system: Pontederia vaginalis; experiment: Herbicidal activity against Monochoria vaginalis assessed as killing at 10 g/ha pre-emergence application under paddy conditions; type: functional
# [2] = Herbicidal activity against broadleaf weed assessed as killing at 10 g/ha pre-emergence application under paddy conditions; type: functional
# [3] = Herbicidal activity against broadleaf weed assessed as killing at 25 g/ha pre-emergence application under paddy conditions; type: functional
# [4] = system: Oryza sativa; experiment: Toxicity in Oryza sativa (rice) assessed as injury at 10 g/ha pre-emergence application under paddy conditions by crop safety assay; type: organism-based; details: in vivo, other
# [5] = Octanol-water partition coefficient, log K of the compound; type: physicochemical; details: read-out: log K
# [6] = system: Oryza sativa; experiment: Toxicity in Oryza sativa (rice) assessed as injury at 25 g/ha pre-emergence application under paddy conditions by crop safety assay; type: organism-based; details: in vivo, other
# [7] = system: Pontederia vaginalis; experiment: Herbicidal activity against Monochoria vaginalis assessed as killing at 25 g/ha pre-emergence application under paddy conditions; type: functional
# [8] = system: Echinochloa oryzicola; experiment: Herbicidal activity against Echinochloa oryzicola assessed as killing at 50 g/ha pre-emergence application under paddy conditions; type: functional
# [9] = system: Oryza sativa; experiment: Toxicity in Oryza sativa (rice) assessed as injury at 50 g/ha pre-emergence application under paddy conditions by crop safety assay; type: organism-based; details: in vivo, other
# [10] = system: Echinochloa oryzicola; experiment: Herbicidal activity against Echinochloa oryzicola assessed as killing pre-emergence application under paddy conditions; type: functional
# [11] = system: Echinochloa oryzicola; experiment: Herbicidal activity against Echinochloa oryzicola assessed as killing at 25 g/ha pre-emergence application under paddy conditions; type: functional
# [12] = system: Schoenoplectiella juncoides; experiment: Herbicidal activity against Schoenoplectiella juncoides assessed as killing at 10 g/ha pre-emergence application under paddy conditions; type: functional
# [13] = Herbicidal activity against broadleaf weed assessed as killing at 50 g/ha pre-emergence application under paddy conditions; type: functional
# [14] = system: Schoenoplectiella juncoides; experiment: Herbicidal activity against Schoenoplectiella juncoides assessed as killing at 50 g/ha pre-emergence application under paddy conditions; type: functional
# [15] = system: Pontederia vaginalis; experiment: Herbicidal activity against Monochoria vaginalis assessed as killing at 50 g/ha pre-emergence application under paddy conditions; type: functional
# [16] = system: Schoenoplectiella juncoides; experiment: Herbicidal activity against Schoenoplectiella juncoides assessed as killing at 25 g/ha pre-emergence application under paddy conditions; type: functional
# [17] = system: Echinochloa oryzicola; experiment: Herbicidal activity against Echinochloa oryzicola assessed as killing at 10 g/ha pre-emergence application under paddy conditions; type: functional
# [18] = system: Chenopodium album; experiment: Herbicidal activity against Chenopodium album assessed as killing at 500 g/ha pre-emergence application upland paddy conditions measured after 14 days; type: functional
# [19] = system: Digitaria ciliaris; experiment: Herbicidal activity against Digitaria ciliaris assessed as killing at 500 g/ha pre-emergence application upland paddy conditions measured after 14 days; type: functional
# [20] = system: Echinochloa crus-galli; experiment: Herbicidal activity against Echinochloa crus-galli (barnyard grass) assessed as killing at 500 g/ha pre-emergence application upland paddy conditions measured after 14 days; type: functional
# [21] = system: Zea mays; experiment: Herbicidal activity against Zea mays (maize)assessed as killing at 500 g/ha pre-emergence application upland paddy conditions measured after 14 days; type: functional
smiles,measurement,setting,value
CCN(CC)C(=O)n1cnc(S(=O)(=O)C(CC(C)C)C(=O)OC(C)C)n1 (configuration not stated),Activity,[1],10%
same,Activity,[2],40%
same,Activity,[3],90%
same,Activity,[4],10%
same,logP,[5],0.89
same,Activity,[6],10%
same,Activity,[7],40%
same,Activity,[8],100%
same,Activity,[9],10%
same,log(1/ED80),[10],1.41
same,Activity,[11],90%
same,Activity,[12],30%
same,Activity,[13],100%
same,Activity,[14],100%
same,Activity,[15],100%
same,Activity,[16],60%
same,Activity,[17],40%
CCN(CC)C(=O)n1cnc(S(=O)(=O)C(CC(C)C)C(=O)OC)n1 (configuration not stated),Activity,[18],100%
same,Activity,[19],100%
same,Activity,[3],70%
same,logP,[5],0.68
same,Activity,[20],100%
same,Activity,[6],10%
same,Activity,[7],50%
same,Activity,[8],100%
same,Activity,[9],10%
same,log(1/ED80),[10],1.26
same,Activity,[11],100%
same,Activity,[13],100%
same,Activity,[21],40%
same,Activity,[14],100%
same,Activity,[15],100%
same,Activity,[16],80%
CCN(CC)C(=O)n1cnc(S(=O)(=O)C(CC(C)C)C(=O)OC(C)(C)C)n1 (configuration not stated),Activity,[3],10%
same,logP,[5],0.99
same,Activity,[6],10%
same,Activity,[7],10%
same,Activity,[8],90%
same,Activity,[9],10%
same,log(1/ED80),[10],1
same,Activity,[11],30%
same,Activity,[13],10%
same,Activity,[14],10%
same,Activity,[15],10%
same,Activity,[16],10%
CCCCCOC(=O)C(CC(C)C)S(=O)(=O)c1ncn(C(=O)N(CC)CC)n1 (configuration not stated),Activity,[3],30%
same,logP,[5],1.18
same,Activity,[6],10%
same,Activity,[7],10%
same,Activity,[8],40%
same,Activity,[9],10%
same,log(1/ED80),[10],0.62
same,Activity,[11],40%
same,Activity,[13],60%
same,Activity,[14],40%
same,Activity,[15],10%
same,Activity,[16],10%
CCCOC(=O)C(CC(C)C)S(=O)(=O)c1ncn(C(=O)N(CC)CC)n1 (configuration not stated),Activity,[3],60%
same,logP,[5],0.9
same,Activity,[6],10%
same,Activity,[7],60%
same,Activity,[8],100%
same,Activity,[9],10%
same,log(1/ED80),[10],1.41
same,Activity,[11],90%
same,Activity,[13],100%
same,Activity,[14],100%
same,Activity,[15],100%
same,Activity,[16],70%
CCN(CC)C(=O)n1cnc(S(=O)(=O)[C@H](CC(C)C)C(=O)OC(C)C)n1,Activity,[1],10%
same,Activity,[2],40%
same,Activity,[3],60%
same,Activity,[4],10%
same,Activity,[6],10%
same,Activity,[7],40%
same,Activity,[11],90%
same,Activity,[12],10%
same,Activity,[16],40%
same,Activity,[17],50%
CCN(CC)C(=O)n1cnc(S(=O)(=O)c2c(C)cc(C)cc2C)n1 [CAFENSTROLE],Activity,[18],100%
same,Activity,[19],90%
same,Activity,[3],90%
same,Activity,[20],90%
same,Activity,[6],10%
same,Activity,[7],100%
same,Activity,[8],100%
same,Activity,[9],10%
same,Activity,[11],100%
same,Activity,[13],100%
same,Activity,[21],60%
same,Activity,[14],100%
same,Activity,[15],100%
same,Activity,[16],90%
CCCCOC(=O)C(CC(C)C)S(=O)(=O)c1ncn(C(=O)N(CC)CC)n1 (configuration not stated),Activity,[3],60%
same,logP,[5],1.04
same,Activity,[6],10%
same,Activity,[7],90%
same,Activity,[8],100%
same,Activity,[9],10%
same,log(1/ED80),[10],1.3
same,Activity,[11],100%
same,Activity,[13],80%
same,Activity,[14],100%
same,Activity,[15],100%
same,Activity,[16],100%
CCOC(=O)C(CC(C)C)S(=O)(=O)c1ncn(C(=O)N(CC)CC)n1 (configuration not stated),Activity,[3],50%
same,logP,[5],0.78
same,Activity,[6],10%
same,Activity,[7],40%
same,Activity,[8],100%
same,Activity,[9],10%
same,log(1/ED80),[10],1.27
same,Activity,[11],90%
same,Activity,[13],60%
same,Activity,[14],90%
same,Activity,[15],90%
same,Activity,[16],30%
